Experiments:
[1] = from C=CCCC[C@@H]1[C@H]2C[C@H]2C[C@H]1OC(=O)N[C@H](C(=O)N1C[C@H](Oc2nc3cc(Cl)ccc3nc2C=C)C[C@H]1C(=O)OC)C(C)(C)C; rcm bond; Zhan Catalyst-1B; DCE; 4.97 mM; 83.0 °C; 0.67 h
[2] = tested on: genotype 3a stable HCV replicon (S52) in Huh-7-derived cells; experiment: Stable subgenomic HCV replicon, genotype 3a, Renilla luciferase; format: cell-based; conditions: Hepatitis C virus, 72 h, read-out: EC50 3A RLUC
Description: (§1) Antiviral potency (EC50) was determined in both stable subgenomic HCV replicon cell lines and transient-transfected HCV replicon cells. The term half maximal effective concentration (EC50) refers to the concentration of a drug which induces a response halfway between the baseline and maximum after the exposure time specified below.
(§2) Stable subgenomic HCV replicons for genotype 1a, 1b, 2a, 3a, and 4a were established in Huh-7-derived cells as described by Lohmann et al (Lohmann V, Korner F, Koch J, et al Replication of subgenomic hepatitis C virus RNAs in a hepatoma cell line. Science 1999; 285:119-3). Each stable cell line contains a bicistronic HCV replicon that encodes a humanized Renilla luciferase (hRLuc) reporter gene fused to a selectable neomycin-resistance gene, followed by an EMCV IRES and the NS3-NS5B coding region of HCV. […] Luciferase activity was measured as a marker for intracellular HCV replication levels.
(§3) The genotype 1a stable replicon was derived from the H77 HCV strain and contained adaptive mutations P1496L and S2204I. The genotype 1b stable replicon was derived from the Con1 HCV strain and contained adaptive mutations E1202G, T1280I, and K1846T. […] The genotype 3a stable replicon was derived from the S52 HCV strain and contained adaptive mutations P1121 L, A1198T and S2210I (equivalent to S2204I in genotype 1). The genotype 4a stable replicon was derived from the ED43 HCV strain and contained adaptive mutations Q1691R and S2204I. All replicon cell lines were propagated in Huh-7-derived cells and maintained in Dulbecco's modified Eagle's Medium (DMEM) supplemented with 10% fetal bovine serum (FBS) and 0.5 mg/ml G418.
(§4) To perform EC50 assays, cells from each HCV replicon were dispensed into 384-well plates. Compounds were dissolved in DMSO at a concentration of 10 mM and diluted in DMSO using an automated pipetting instrument. Three-fold serially diluted compounds were directly added to the cells using an automated instrument. DMSO was used as a negative (solvent; no inhibition) control, and a combination of three HCV inhibitors including a protease inhibitor; an NS5A inhibitor and a nucleoside inhibitor was used at concentrations >100×EC50 as a positive control (100% inhibition). Seventy-two hours later, cells were lysed and Renilla luciferase activity were quantified as recommended by the manufacturer (Promega-Madison, Wis.). Non-linear regression was performed to calculate […], values.

[3] = target: T1, NS3 genotype 3a protease (UniProt Q81258); experiment: Ki determination, NS3 protease genotype 3a (fluorogenic depsipeptide substrate); format: biochemical, hepatitis C virus; conditions: NS3 protease domain genotype 3a, NS4A peptide
T1 construct: Purified NS3 protease domain (amino acids 1-181) of the genotype 1b and 3a virus were generated as above; fused on or other part: N-terminal hexahistidine tag with an rTEV protease cleavage site (vector p28-N6H-Tev-NS3(181)3)
T1 sequence (Q81258 1033-1663): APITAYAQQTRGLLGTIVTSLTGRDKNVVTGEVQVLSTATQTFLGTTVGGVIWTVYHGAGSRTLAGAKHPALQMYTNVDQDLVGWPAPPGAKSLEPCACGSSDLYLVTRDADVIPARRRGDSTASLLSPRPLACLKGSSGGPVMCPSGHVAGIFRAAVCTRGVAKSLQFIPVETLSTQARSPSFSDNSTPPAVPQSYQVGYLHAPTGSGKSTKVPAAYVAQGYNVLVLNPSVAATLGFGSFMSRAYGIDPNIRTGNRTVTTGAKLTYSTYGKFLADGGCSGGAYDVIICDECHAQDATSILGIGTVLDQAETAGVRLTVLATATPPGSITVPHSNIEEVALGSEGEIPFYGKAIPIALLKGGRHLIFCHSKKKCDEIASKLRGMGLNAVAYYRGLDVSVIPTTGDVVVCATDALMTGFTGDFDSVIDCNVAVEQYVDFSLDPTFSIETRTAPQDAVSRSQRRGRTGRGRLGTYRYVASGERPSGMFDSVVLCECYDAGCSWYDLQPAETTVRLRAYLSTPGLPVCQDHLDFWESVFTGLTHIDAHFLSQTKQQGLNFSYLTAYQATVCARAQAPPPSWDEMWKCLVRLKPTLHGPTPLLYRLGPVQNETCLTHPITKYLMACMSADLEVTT
Text: (§5) Ki Determination for Genotypes 1b and 3a NS3 Protease.
(§6) Purified NS3 protease domain (amino acids 1-181) of the genotype 1b and 3a virus were generated as above. The internally quenched fluorogenic depsipeptide substrate Ac-DED(Edans)-EEAbuψ[COO]ASK(Dabcyl)-NH2 and a synthetic peptide containing the hydrophobic core residues of the NS4A protein cofactor ([…]; NS4A peptide) were obtained from Anaspec, Inc. (San Jose, Calif.). Other chemicals and biochemicals were of reagent grade or better and were purchased from standard suppliers.
(§7) Reactions were run at room temperature in buffer consisting of 50 mM HEPES, 40% glycerol, 0.05% Triton X-100, 10 mM DTT, and 10% DMSO. The final assay solutions contained 50 pM NS3 genotype 1b protease or 200 pM genotype 3a protease, 20 μM NS4A peptide, and 4 μM substrate (genotype 1b) or 2 μM substrate (genotype 3a). Inhibitor concentrations varied from 100 nM to 5 pM in 3-fold dilutions, and no-inhibitor controls were included.
(§8) Compound dilutions were made in DMSO at 20× final concentration. Reaction mixtures were prepared in 96-well assay plates. A solution of enzyme and NS4A peptide in assay buffer (25 μL volume with both reagents at 4× final concentration) was mixed with 45 μL assay buffer and 5 μL of either inhibitor or DMSO, and pre-incubated at room temperature for 1 hour. The reaction was started by addition of 25 μL substrate solution at 4× final concentration. Plates were mixed vigorously for 5-10 seconds and reactions were allowed to proceed for 90 minutes. Fluorescence was measured every 30 s between 90 and 120 minutes reaction time using a Tecan InfiniTe M1000 or PerkinElmer Envision multimode plate reader with an excitation wavelength of 340 nm and an emission wavelength of 490 nm.
(§9) Rates were calculated from the progress curves at steady state, in the time frame of 90-120 minutes after addition of substrate. To determine the Ki, rates were plotted as a function of inhibitor concentration, and the data were fit with equation 1 (Morrison, J. F., Biochimica et Biophysica Acta 1969, 185, 269-286) to calculate Ki^app using GraphPad Prism 5. Active fraction of enzyme was determined by active site titration with known potent inhibitors. Ki was calculated from Ki^app/(1+[[S]/Km]).

[4] = tested on: genotype 2a stable HCV replicon (JFH-1) in Huh-7-derived cells; experiment: Stable subgenomic HCV replicon, genotype 2a, Renilla luciferase; format: cell-based; conditions: Hepatitis C virus, stable replicon genotype 2a, 72 h, read-out: EC50 2A RLUC
Description: as §1, §2, §3, §4

[5] = tested on: genotype 1a stable HCV replicon (H77) in Huh-7-derived cells; experiment: Stable subgenomic HCV replicon, genotype 1a, Renilla luciferase; format: cell-based; conditions: Hepatitis C virus, stable replicon genotype 1a, 72 h, read-out: EC50 1A RLUC
Description: as §1, §2, §3, §4

[6] = tested on: genotype 1b stable HCV replicon (Con1) in Huh-7-derived cells; experiment: Stable subgenomic HCV replicon, genotype 1b, Renilla luciferase; format: cell-based; conditions: Hepatitis C virus, stable replicon genotype 1b, 72 h, read-out: EC50 1B RLUC
Description: as §1, §2, §3, §4

[7] = tested on: genotype 4a stable HCV replicon (ED43) in Huh-7-derived cells; experiment: Stable subgenomic HCV replicon, genotype 4a, Renilla luciferase; format: cell-based; conditions: Hepatitis C virus, 72 h, read-out: EC50 4A RLUC
Description: as §1, §2, §3, §4

[8] = target: T2, NS3 genotype 1b protease (Hepatitis C virus genotype 1b, UniProt Q9WMX2, E1202G); experiment: Ki determination, NS3 protease genotype 1b (fluorogenic depsipeptide substrate); format: biochemical; conditions: NS3 protease domain genotype 1b, NS4A peptide
T2 construct: Purified NS3 protease domain (amino acids 1-181) of the genotype 1b and 3a virus were generated as above; K3 hexahistidine tag (N); rTEV protease cleavage site (N); made in house; host or cells: E. coli BL21AI
Text: as §5, §6, §7, §8, §9

T2 sequence (Q9WMX2 1027-1207 E1202G, other chains not shown): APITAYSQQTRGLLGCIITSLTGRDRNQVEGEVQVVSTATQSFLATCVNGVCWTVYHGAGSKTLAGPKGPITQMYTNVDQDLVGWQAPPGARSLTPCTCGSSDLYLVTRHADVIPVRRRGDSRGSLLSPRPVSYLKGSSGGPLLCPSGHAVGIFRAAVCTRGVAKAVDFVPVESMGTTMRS

| Structure (SMILES) | ring closure, yield of all isomers [1] [%] | EC50 [2] [nM] | Ki [3] [nM] | EC50 [4] [nM] | EC50 [5] [nM] | EC50 [6] [nM] | EC50 [7] [nM] | Ki [8] [nM] |
| --- | --- | --- | --- | --- | --- | --- | --- | --- |
| COC(=O)[C@@H]1C[C@@H]2CN1C(=O)[C@H](C(C)(C)C)NC(=O)O[C@@H]1C[C@@H]3C[C@@H]3[C@H]1CCCC=Cc1nc3ccc(Cl)cc3nc1O2 | 56.6 | – | – | – | – | – | – | – |
| COc1ccc2nc3c(nc2c1)O[C@@H]1C[C@@H](C(=O)N[C@]2(C(=O)NS(=O)(=O)C4CC4)C[C@H]2C(F)F)N(C1)C(=O)[C@H](C(C)(C)C)NC(=O)O[C@H]1[C@@H]2CC[C@@H](C2)[C@@H]1CCCCC3 [Example 6, (1S,4R,4aS,8S,11S,13R,25aS)-8-tert-butyl-N-[(1R,2R)-1-[(cyclopropylsulfonyl)carbamoyl]-2-(difluoromethyl)cyclopropyl]-17-methoxy-6,9-dioxo-2,3,4,4a,6,7,8,9,12,13,21,22,23,24,25,25a-hexadecahydro-1H,11H-1, 4:10,13-dimethanoquinoxalino[2,3-k][1,10,3,6]benzodioxadiazacyclononadecine-11-carboxamide] | – | 3840 | 1.2 | 294 | 723 | 581 | 433 | 0.01 |
